Results taken from patent publication US12351878B2, “Identification of HER2 mutations in lung cancer and methods of treatment” (THE TRANSLATIONAL GENOMICS RESEARCH INSTITUTE, priority 2018, dated 2025).
“Also recorded” adds a separate entry of the source. Read-outs that look alike come from different tables or passages of the source.

Key:
[1] = test system: HER2 V659E cPAC cell lines; experiment: 72 hour drug dose-response, CellTiter-Glo cell viability; type: cell-based, canine; settings: for IC50: Canis lupus familiaris; for sensitivity of HER2 V659E lines relative to HER2 wild-type cell lines: in vitro viability
Description: (§1) Sample Collection: Tumors and cell lines from 89 dogs from the Canine Comparative Oncology and Genomics Consortium (CCOGC) (11) and The Ohio State University (OSU) College of Veterinary Medicine Biospecimen Repository were included. Board-certified veterinary pathologists confirmed tumor diagnosis based on histopathology. Tumor and normal tissue samples were flash frozen in liquid nitrogen or formalin-fixed and paraffin-embedded (FFPE). Cell lines were maintained in RPMI 1640 with GlutaMAX™ (Gibco™, Thermo Fisher Scientific, #61870036) supplemented with 10% heat-inactivated fetal bovine serum at 37° C. and 5% CO2 and passaged at 90% confluence. Cell lines with known passage data (except BACA) were sequenced within the first eight passages of derivation and subsequently expanded for phenotypic studies, and were authenticated by IDEXX BioResearch (Columbia, MO) using the Cell Check Canine STR Profile and Interspecies Contamination Test or by NkX2 (or TTF-1) RT-PCR. Human cell lines included BT474 (ATCC #HTB20, HER2 focal amplification) and H1781 (ATCC #CRL-5894, HER2 […]). Blood for cell-free DNA (cfDNA) and germline DNA extraction was collected in 10 ml K2 EDTA Blood tubes (Thermo Fisher Scientific #22-253-145). Plasma separation was performed at room temperature within 1 hour (2× serial centrifugation at 2000 rpm×15 minutes). Plasma aliquots were stored frozen at −80° C. DNA extraction from plasma, white blood cells and tissue was performed with MagMAX Cell-Free DNA Isolation Kit (Thermo Fisher Scientific #A29319), DNeasy Blood and Tissue Kit (QIAGEN #69504) and Qiagen AllPrep DNA/RNA Mini Kit (QIAGEN #80204), respectively.
(§2) Cells were cultured in RPMI supplemented with 10% FBS and 1% Penicillin/Streptomycin. Luminescence was read using Synergy Mx (Biotek) plate reader. Six replicates were performed for each dose. Curve-fitting and IC50 calculations were performed using GraphPad Prism v7.00 (GraphPad Software).
(§3) We first assessed differential sensitivity of HER2 V659E and HER2 WT canine lung cancer cell lines to lapatinib (HER2 and EGFR inhibitor) and neratinib (HER2, HER4, and EGFR inhibitor). Five cPAC cell lines (two HER2 V659E and three HER2 WT) were treated with neratinib and four (one HER2 V659E and three HER2 WT) with lapatinib for 72 hours. Two HER2-mutant human cancer cell lines-BT474 (HER2 AMP) and H1781 (kinase domain HER2 G776ins)—were treated as positive drug controls (18, 21) (FIGS. 2B and 6). […] Given that HER2 receptors dimerize with EGFR, we then evaluated differential sensitivity of the five canine cell lines and the human BT474 control line to the EGFR inhibitor, erlotinib.

HER2 WT cPAC cell lines = experiment: as above; type: cell-based, canine; settings: Canis lupus familiaris
Description: as §1, §2, §3

[2] = test system: p-AKT in OSUK9PAPADO (HER2 WT); experiment: Western blot of phospho-AKT and AKT under serum starvation; type: cell-based, canine; settings: 5 doses 20-2000 nmol/L
Experimental: […]
(§4) Immunoblot Analyses: Subconfluent cells were serum starved overnight, then treated with 20 nM neuregulin for 15 min prior to harvest. […] Membranes were blocked for 1 hour in LiCor blocking buffer and incubated with primary antibody at 4° C., overnight, followed by fluorescence-conjugated secondary antibodies. […]

[3] = test system: p-AKT in OSUK9PAPADRi (HER2 V659E); experiment: as above; type: cell-based, canine; settings: 5 doses 20-2000 nmol/L
Experimental: […]
as §4

[4] = test system: HER2-mutant cell lines (HER2 V659E cPAC lines, BT474, H1781); experiment: 72 hour drug dose-response, CellTiter-Glo cell viability; type: cell-based, canine and human; settings: all HER2-mutant cell lines
Description: Sample Collection: Tumors and cell lines from 89 dogs from the Canine Comparative Oncology and Genomics Consortium (CCOGC) (11) and The Ohio State University (OSU) College of Veterinary Medicine Biospecimen Repository were included. Board-certified veterinary pathologists confirmed tumor diagnosis based on histopathology. Tumor and normal tissue samples were flash frozen in liquid nitrogen or formalin-fixed and paraffin-embedded (FFPE). Cell lines were maintained in RPMI 1640 with GlutaMAX™ (Gibco™, Thermo Fisher Scientific, #61870036) supplemented with 10% heat-inactivated fetal bovine serum at 37° C. and 5% CO2 and passaged at 90% confluence. […]
Cells were cultured in RPMI supplemented with 10% FBS and 1% Penicillin/Streptomycin. Luminescence was read using Synergy Mx (Biotek) plate reader. […]
We first assessed differential sensitivity of HER2 V659E and HER2 WT canine lung cancer cell lines to lapatinib (HER2 and EGFR inhibitor) and neratinib (HER2, HER4, and EGFR inhibitor). […] Given that HER2 receptors dimerize with EGFR, we then evaluated differential sensitivity of the five canine cell lines and the human BT474 control line to the EGFR inhibitor, erlotinib.

p-AKT in BT474 (HER2amp) = experiment: Western blot of phospho-AKT and AKT under serum starvation; type: cell-based, human; settings: 5 doses 20-2000 nmol/L
Experimental: […]
as §4

[5] = 72 h, read-out: IC50, viability

SMILES | IC50 ([1]; 72 h, read-out: IC50, viability, one of the two HER2 V659E lines, 72 hours) | IC50 ([1]; 72 h, read-out: IC50, viability, other of the two HER2 V659E lines, 72 hours) | sensitivity of HER2-mutant canine cell lines ([1]; two HER2-mutant cell lines) | IC50 (HER2 WT cPAC cell lines; [5]) | IC50 ([1]; HER2 V659E cPAC cell lines, 72 hours, both TKIs, read-out: IC50, viability) | sensitivity of HER2 V659E lines relative to HER2 wild-type cell lines [1] | IC50 (HER2 WT cPAC cell lines; HER2 WT cPAC cell lines, 72 hours, both TKIs, read-out: IC50, viability) | IC50 [1, 5] | IC50 (HER2 WT cPAC cell lines; 72 h, read-out: IC50, viability, HER2 WT cPAC cell lines, 72 hours, both TKIs) | IC50 (HER2 WT cPAC cell lines; 72 h, read-out: IC50, viability, HER2WT cells, 72 hours, p=0.0079 vs HER2-mutant) | p-AKT level by Western blot [2] | p-AKT level by Western blot [3] | IC50 [4] | p-AKT level by Western blot (p-AKT in BT474 (HER2amp))
C#Cc1cccc(Nc2ncnc3cc(OCCOC)c(OCCOC)cc23)c1 [erlotinib] | 220 nM | 1170 nM | One of two HER2-mutant cell lines showed erlotinib sensitivity | 1100 to 15400 nM |  |  |  |  |  |  |  |  |  | 
CS(=O)(=O)CCNCc1ccc(-c2ccc3ncnc(Nc4ccc(OCc5cccc(F)c5)c(Cl)c4)c3c2)o1 [lapatinib] |  |  |  |  | < 200 nM | selectively sensitive; also recorded: hypersensitivity | > 2500 nM |  |  |  |  |  |  | 
CCOc1cc2ncc(C#N)c(Nc3ccc(OCc4ccccn4)c(Cl)c3)c2cc1NC(=O)/C=C/CN(C)C [neratinib] |  |  |  |  |  | selectively sensitive; also recorded: hypersensitivity |  | < 200 nM | > 2500 nM | > 2700 nM | low at all treatment levels | dose-dependent decrease in p-AKT | < 50 nM | dose-dependent decrease in p-AKT
